Literature values as cited in patent US20080241290A1, “Sinus relief composition and method of producing the same” (priority 2007, published 2008).

Settings: pure capsaicinoid, Scoville scale

## COc1cc(CNC(=O)CCCC/C=C/C(C)C)ccc1O [capsaicin]
  pungency (Scoville heat units): 15,000,000-16,000,000 Scoville units
